Literature values in patent US20250339568A1, “PRECURSOR AND RADIOTRACER FOR NEUROENDOCRINE THERANOSTICS” (ITM Oncologics GmbH, priority 2021, published 2025).

Biological target: T1, HEK293-SSR2 tumour cells (Homo sapiens, UniProt P30874)
T1 construct: host or cells: HEK293-SSR2 tumour cells
Settings: reference example of EP 2 801 582 A1, Table 12

T1 sequence (P30874 whole entry): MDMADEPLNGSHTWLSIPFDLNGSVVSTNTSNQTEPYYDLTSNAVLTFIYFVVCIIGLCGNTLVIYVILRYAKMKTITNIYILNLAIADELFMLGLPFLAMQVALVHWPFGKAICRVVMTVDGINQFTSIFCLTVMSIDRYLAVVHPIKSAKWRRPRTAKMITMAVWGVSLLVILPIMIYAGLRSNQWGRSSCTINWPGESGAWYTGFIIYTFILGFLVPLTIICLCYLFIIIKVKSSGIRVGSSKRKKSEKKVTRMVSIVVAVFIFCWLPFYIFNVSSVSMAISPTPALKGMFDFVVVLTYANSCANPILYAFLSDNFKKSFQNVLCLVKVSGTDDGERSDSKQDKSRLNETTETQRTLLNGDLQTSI

DOTA-Cpa-cyclo[DCys-Pal-DAph(Cbm)-Lys-Thr-Cys]DTyr-NH2
uptake in HEK293-SSR2 tumour cells: without quantifiable uptake
